Assay results taken from paper PMC6332430, “Design, Synthesis and Biological Evaluation of Novel Substituted N,N′-Diaryl ureas as Potent p38 Inhibitors” (Molecules, 2015).
Where two headings read alike, the source gives them in different places.

What was measured:
Assay in all cases: TR-FRET kinase assay, GFP-ATF2 ([…]-96) phosphorylation
Type in all cases: biochemical
MAPK14/p38α [1] = biological target: T1, MAPK14/p38α (Homo sapiens, UniProt Q16539)
p38β = biological target: T2, p38β (Homo sapiens, UniProt Q15759)
T2 construct: gene MAPK11
T2 sequence (Q15759 whole entry): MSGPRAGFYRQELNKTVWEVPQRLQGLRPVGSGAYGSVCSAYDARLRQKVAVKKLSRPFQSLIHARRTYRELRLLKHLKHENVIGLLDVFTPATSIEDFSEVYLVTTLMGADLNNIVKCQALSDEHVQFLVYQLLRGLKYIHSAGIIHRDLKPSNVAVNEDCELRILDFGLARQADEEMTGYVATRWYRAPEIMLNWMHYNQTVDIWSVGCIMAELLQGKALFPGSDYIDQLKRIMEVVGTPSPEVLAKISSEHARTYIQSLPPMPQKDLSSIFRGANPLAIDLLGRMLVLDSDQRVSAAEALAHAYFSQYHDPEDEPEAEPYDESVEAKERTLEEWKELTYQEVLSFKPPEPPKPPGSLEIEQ

p38δ = biological target: T3, p38δ (Homo sapiens, UniProt O15264)
T3 construct: gene MAPK13
T3 sequence (O15264 1-365): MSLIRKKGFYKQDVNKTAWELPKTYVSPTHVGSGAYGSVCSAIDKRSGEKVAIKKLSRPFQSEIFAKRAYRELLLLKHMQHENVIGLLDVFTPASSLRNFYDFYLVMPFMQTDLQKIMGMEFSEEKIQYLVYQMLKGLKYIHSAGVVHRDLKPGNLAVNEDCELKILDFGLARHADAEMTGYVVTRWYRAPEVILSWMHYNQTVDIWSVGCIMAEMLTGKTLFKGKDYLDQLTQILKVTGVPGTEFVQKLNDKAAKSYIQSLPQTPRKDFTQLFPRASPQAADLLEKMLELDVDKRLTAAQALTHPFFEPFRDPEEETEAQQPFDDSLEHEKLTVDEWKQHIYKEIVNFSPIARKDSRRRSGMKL

p38γ = biological target: T4, p38γ (Homo sapiens, UniProt P53778)
T4 construct: gene MAPK12
T4 sequence (P53778 1-367): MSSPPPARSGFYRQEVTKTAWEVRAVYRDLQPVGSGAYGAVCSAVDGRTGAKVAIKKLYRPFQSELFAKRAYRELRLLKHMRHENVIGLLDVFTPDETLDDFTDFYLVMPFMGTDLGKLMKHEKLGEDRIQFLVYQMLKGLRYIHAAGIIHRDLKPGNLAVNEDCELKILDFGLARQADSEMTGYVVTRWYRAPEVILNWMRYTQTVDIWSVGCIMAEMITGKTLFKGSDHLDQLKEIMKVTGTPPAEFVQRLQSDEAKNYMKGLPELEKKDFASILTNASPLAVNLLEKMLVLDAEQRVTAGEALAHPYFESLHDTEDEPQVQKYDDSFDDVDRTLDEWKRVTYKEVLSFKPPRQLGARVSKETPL

MAPK14/p38α [2] = biological target: T1, MAPK14/p38α; details: 90 μM ATP, 0.4 μM GFP-ATF2, 10 mM MgCl2, pH 7.5, RT, 15 min preincubation; unreliable (the two tables disagree)

T1 sequence (Q16539 2-360): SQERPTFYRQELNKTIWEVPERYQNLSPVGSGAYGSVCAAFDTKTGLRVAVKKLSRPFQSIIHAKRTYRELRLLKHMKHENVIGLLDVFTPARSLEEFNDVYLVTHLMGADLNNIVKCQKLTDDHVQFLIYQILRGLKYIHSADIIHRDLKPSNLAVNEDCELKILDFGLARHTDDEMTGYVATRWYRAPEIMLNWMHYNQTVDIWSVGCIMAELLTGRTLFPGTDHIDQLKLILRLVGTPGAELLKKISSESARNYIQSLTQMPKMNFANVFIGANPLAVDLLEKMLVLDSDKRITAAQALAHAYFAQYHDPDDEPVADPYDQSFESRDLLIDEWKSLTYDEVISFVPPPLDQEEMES

Row | SMILES | IC50 (MAPK14/p38α [1]) [nM] | further results
1 | Cc1ccc(-n2nc(C(C)(C)C)cc2NC(=O)NCc2cc(F)ccc2Oc2ccc3nc(N)sc3c2)cc1 [8b, 1-(2-((2-Aminobenzo[d]thiazol-6-yl)oxy)-5-fluorobenzyl)-3-(3-(tert-butyl)-1-(p-tolyl)-1H-pyrazol-5-yl)urea] | 1.11 ± 0.2 | 
2 | CC(C)(C)c1cc(NC(=O)NCc2ccccc2Oc2ccc3nc(N)sc3c2)n(-c2ccc([N+](=O)[O-])cc2)n1 [8a, 1-(2-((2-Aminobenzo[d]thiazol-6-yl)oxy)benzyl)-3-(3-(tert-butyl)-1-(4-nitrophenyl)-1H-pyrazol-5-yl)urea] | 2.878 ± 0.01 | 
3 | CCNC(=O)Nc1nc2ccc(Oc3ccc(F)cc3CNC(=O)Nc3cc(C(C)(C)C)nn3-c3ccc(C)cc3)cc2s1 [9g, 1-(3-(Tert-butyl)-1-(p-tolyl)-1H-pyrazol-5-yl)-3-(2-((2-(3-ethylureido)benzo[d]thiazol-6-yl)oxy)-5-fluorobenzyl)urea] |  | IC50 (p38β): 20.1 ± 1.4 nM; p38α IC50 (nM) ^a (MAPK14/p38α [2]): 0.844 ± 1.04 nM; IC50 (p38δ): 948.4 ± 8.35 nM; IC50 (p38γ): 424 ± 5.75 nM
4 | COC(=O)Nc1nc2ccc(Oc3ccccc3CNC(=O)Nc3cc(C(C)(C)C)nn3-c3ccc([N+](=O)[O-])cc3)cc2s1 [9a, Methyl(6-(2-((3-(3-(tert-butyl)-1-(4-nitrophenyl)-1H-pyrazol-5-yl)ureido)methyl)phenoxy)benzo[d]thiazol-2-yl)carbamate] | 1.31 ± 0.09 | 
5 | COC(=O)Nc1nc2ccc(Oc3ccc(F)cc3CNC(=O)Nc3cc(C(C)(C)C)nn3-c3ccc(C)cc3)cc2s1 [9j, Methyl(6-(2-((3-(3-(tert-butyl)-1-(p-tolyl)-1H-pyrazol-5-yl)ureido)methyl)-4-fluorophenoxy)benzo[d]thiazol-2-yl)carbamate] | 4.28 ± 1.14 | 
6 | Cc1ccc(-n2nc(C(C)(C)C)cc2NC(=O)NCc2ccccc2Oc2ccc3nc(NC(=O)NCCCl)sc3c2)cc1 [9e, 1-(3-(Tert-butyl)-1-(p-tolyl)-1H-pyrazol-5-yl)-3-(2-((2-(3-(2-chloroethyl)ureido)benzo[d]thiazol-6-yl)oxy)benzyl)urea] |  | IC50 (MAPK14/p38α [1]; read-out: p38α IC50 (nM) ^a): 3.29 ± 0.25 nM

Continued, in another order:

Row | IC50 (MAPK14/p38α [1]) [nM] | SMILES | further results
7 | 1.02 ± 0.09 | COC(=O)Nc1nc2ccc(Oc3ccccc3CNC(=O)Nc3cc(C(C)(C)C)nn3-c3ccc(C)cc3)cc2s1 [9c, Methyl(6-(2-((3-(3-(tert-butyl)-1-(p-tolyl)-1H-pyrazol-5-yl)ureido)methyl)phenoxy)benzo[d]thiazol-2-yl)carbamate] | 
8 | 6.16 ± 0.07 | Cc1ccc(-n2nc(C(C)(C)C)cc2NC(=O)NCc2ccccc2Oc2ccc3nc(NC(=O)NC(C)(C)C)sc3c2)cc1 [9b, 1-(3-(Tert-butyl)-1-(p-tolyl)-1H-pyrazol-5-yl)-3-(2-((2-(3-(tert-butyl)ureido)benzo[d]thiazol-6-yl)oxy)benzyl)urea] | 
9 | 7.54 ± 1.99 | Cc1ccc(-n2nc(C(C)(C)C)cc2NC(=O)NCc2cc(F)ccc2Oc2ccc3nc(NC(=O)NC(C)(C)C)sc3c2)cc1 [9i, 1-(3-(Tert-butyl)-1-(p-tolyl)-1H-pyrazol-5-yl)-3-(2-((2-(3-(tert-butyl)ureido)benzo[d]thiazol-6-yl)oxy)-5-fluorobenzyl)urea] | 
10 | 4.499 ± 0.04 | Cc1ccc(-n2nc(C(C)(C)C)cc2NC(=O)NCc2ccccc2Oc2ccc3nc(NC(=O)NC4CCCCC4)sc3c2)cc1 [9f, 1-(3-(Tert-butyl)-1-(p-tolyl)-1H-pyrazol-5-yl)-3-(2-((2-(3-cyclohexylureido)benzo[d]thiazol-6-yl)oxy)benzyl)urea] | 
11 | 12.4 ± 0.18 | Cc1ccc(-n2nc(C(C)(C)C)cc2NC(=O)NCc2cc(F)ccc2Oc2ccc3nc(NC(=O)NC4CCCCC4)sc3c2)cc1 [9h, 1-(3-(Tert-butyl)-1-(p-tolyl)-1H-pyrazol-5-yl)-3-(2-((2-(3-cyclohexylureido)benzo[d]thiazol-6-yl)oxy)-5-fluorobenzyl)urea] | 
12 | 1.5 ± 0.24 | CCNC(=O)Nc1nc2ccc(Oc3ccccc3CNC(=O)Nc3cc(C(C)(C)C)nn3-c3ccc(C)cc3)cc2s1 [9d, 1-(3-(Tert-butyl)-1-(p-tolyl)-1H-pyrazol-5-yl)-3-(2-((2-(3-ethylureido)benzo[d]thiazol-6-yl)oxy)benzyl)urea] | IC50 (p38β): 17.5 ± 1.25 nM; IC50 (p38δ): 231 ± 7.15 nM; IC50 (p38γ): 191 ± 7.2 nM
